pKi: −log10 of the molar value.
Molecular target: T1, Adenosine deaminase (Bos taurus, UniProt P56658)
T1 sequence (P56658 whole entry): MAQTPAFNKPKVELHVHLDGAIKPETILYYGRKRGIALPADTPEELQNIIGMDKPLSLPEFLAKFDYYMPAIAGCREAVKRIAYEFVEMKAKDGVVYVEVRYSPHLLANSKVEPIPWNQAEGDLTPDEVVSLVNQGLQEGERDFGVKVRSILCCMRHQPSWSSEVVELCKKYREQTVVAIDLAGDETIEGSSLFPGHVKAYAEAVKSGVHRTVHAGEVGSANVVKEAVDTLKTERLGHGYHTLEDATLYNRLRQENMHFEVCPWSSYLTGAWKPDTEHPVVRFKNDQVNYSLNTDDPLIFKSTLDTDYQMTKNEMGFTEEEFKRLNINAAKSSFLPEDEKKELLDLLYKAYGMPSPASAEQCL
Assay: Inhibition constant against calf intestinal adenosine deaminase; Not active; call rule not given here

Row | SMILES | Ki
1 | N=C(N)c1ncn(C2O[C@H](CO)[C@@H](O)[C@H]2O)c1N (stereo partly specified) | Not Active
2 | N=C(N)c1cn(C2O[C@H](CO)[C@@H](O)[C@H]2O)cn1 (stereo partly specified) | Not Active
3 | Nc1ncnc2c1ccn2[C@@H]1O[C@H](CO)[C@@H](O)[C@H]1O [TUBERCIDIN] | Not Active
4 | Nc1ccnc2c1ccn2C1O[C@H](CO)[C@@H](O)[C@H]1O (stereo partly specified) | Not Active
5 | NC(=O)c1ccn(C2O[C@H](CO)[C@@H](O)[C@H]2O)c1 (stereo partly specified) | Not Active

Molecular target: T1, Adenosine deaminase
Assay: Inhibition of calf intestinal adenosine deaminase

Row | SMILES | pKi
6 | CCCCCCC(C(C)O)n1cnc(C(=N)N)c1 (stereo unspecified) | 5.59
7 | Nc1cccc2c1ncn2C1O[C@H](CO)[C@@H](O)[C@H]1O (stereo partly specified) | 3.96
8 | CCCCCCC(C(C)O)n1cnc(C(=O)NC[C@H](C)O)c1 (stereo partly specified) | 5.16
9 | CCCCCCC(C(C)O)n1cnc(C(=O)NCc2ccccc2)c1 (stereo unspecified) | 4.07
10 | CCCCCCC(C(C)O)n1cnc(C(=O)NC)c1 (stereo unspecified) | 6.43
11 | CCCCCCC(C(C)O)n1cnc(C(=O)N(C)C)c1 (stereo unspecified) | 4.44
12 | CCCCCCC(C(C)O)n1cnc(C(=O)OCC)c1N (stereo unspecified) | 3.46
13 | CCCCCCC(C(C)O)n1cnc(C(=O)O)c1 (stereo unspecified) | 4.41
14 | CCCCCCC(C(C)O)n1cnc(C(=O)OCC)c1 (stereo unspecified) | 4.18
15 | CCCCCCC(C(C)O)n1cnc(C(=O)NCCO)c1 (stereo unspecified) | 6.03
16 | CCCCCCC(C(C)O)n1cnc(C(=O)NC[C@@H](C)O)c1 (stereo partly specified) | 4.49
17 | CCCCCCC(C(C)O)n1cnc(CO)c1 (stereo unspecified) | 5.60
18 | CCCCCCC(C(C)O)n1cnc(CN)c1 (stereo unspecified) | 5.40
19 | CCCCCCC(C(C)O)n1cnc(C(=O)NCCC)c1 (stereo unspecified) | 4.80
20 | CCCCCCC(C(C)O)n1cnc(C(N)=O)c1Cl (stereo unspecified) | 6.90
21 | CCCCCCC(C(C)O)n1cnc(C(N)=O)c1 (stereo unspecified) | 7.45
22 | CCCCCCC(C(C)O)n1cnc(C(N)=O)c1N (stereo unspecified) | 5.98
23 | CCCCCCC(C(C)O)n1cnc(C(=O)NCC)c1 (stereo unspecified) | 4.75
24 | CCCCCCC(C(C)O)n1cnc(C(=O)NC2CCCC2)c1 (stereo unspecified) | 4.39
25 | CCCCCCC(C(C)O)n1cnc(C(=N)S)c1 (stereo unspecified) | 7.33
26 | CCCCCCC(C(C)O)n1cnc(C(=N)N)c1N (stereo unspecified) | 4.97

Source: ChEMBL document CHEMBL1125631, “Adenosine deaminase inhibitors: synthesis and structure-activity relationships of imidazole analogues of erythro-9-(2-hydroxy-3-nonyl)adenine” (J Med Chem, 1991)
